For assay [1], the system named is MRC5 non-malignant human lung cells. The assay can be described thus: MTT cell viability assay, MRC-5. The class given is cell-based. On the technique in general: Formazan colour is commonly taken as a measure of viable cells.
The test system of assay [2] is A549 human cells from lung adenocarcinoma. As to the kind of experiment: MTT cell viability assay, A549. The class given is cell-based. Particulars: for IC50: A549, 48 hours exposure, MTT; for anticancer activity against the cancer line (in words): A549 lung cancer cells.
Assay [3] concerns the target T1, NK1 receptor (Homo sapiens, UniProt P25103). The assay can be described thus: Displacement of marked SP ([125I]BH-SP). The class given is binding. The settings on record: Concentration 6.0E−05 M; marked SP 0.15 nM, 60 minutes at room temperature.
Target sequence in this assay (P25103 whole entry): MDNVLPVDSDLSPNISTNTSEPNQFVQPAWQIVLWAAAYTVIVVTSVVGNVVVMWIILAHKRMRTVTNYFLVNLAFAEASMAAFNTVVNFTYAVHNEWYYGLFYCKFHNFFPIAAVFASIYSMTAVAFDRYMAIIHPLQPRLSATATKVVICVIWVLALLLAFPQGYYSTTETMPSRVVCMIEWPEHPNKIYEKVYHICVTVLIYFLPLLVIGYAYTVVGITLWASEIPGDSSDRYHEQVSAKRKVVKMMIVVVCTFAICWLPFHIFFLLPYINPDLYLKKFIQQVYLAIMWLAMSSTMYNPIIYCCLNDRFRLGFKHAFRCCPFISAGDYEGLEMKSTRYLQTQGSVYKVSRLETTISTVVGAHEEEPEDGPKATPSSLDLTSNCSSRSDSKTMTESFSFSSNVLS
Assay [4] addresses T1, NK1 receptor. As to the kind of experiment: IP-One assay (SP-induced IP1 accumulation in CHO cells transfected with NK1). It counts as cell-based. The arrangement: expressed in transfected cells; host or cells: CHO cells, transient electroporation. The procedure: Non-essential amino acids were also added to the medium (Invitrogen).
Transient transfection of the cell lines was carried out by electroporation in a volume of 300 μL with a total of 10 μg DNA (pRK5 Neo-NK1 wild type) plasmid (using up to 500 ng of pRK5como carrier DNA to achieve 10 μg) and with 10^7 cells in the electroporation buffer (50 mM K2HPO4, 20 mM CH3COOK, 20 mM KOH and 26 mM MgSO4, pH 7.4). After electroporation (280 V, 1 mF, GeneZapper 450/2500; IBI, New Haven, Conn., USA), the cells were suspended in a complete medium and seeded on well culture plates with a density of 10^5 per well. The 96-well culture plates were first covered with polyornithine diluted in PBS, then incubated at 37° C. for 30 minutes and they were then washed with PBS before being seeded.
The activation and inhibition of the route of the IP by the NK1 receptor agonists and antagonists, respectively, was determined using the dynamic IP-One kit (Cisbio Bioassays, Bagnols-sur-Cèze, France). After transfection, 10^5 cells were distributed in 100 pll of a complete medium into a 96-well assay plate (Greiner Bio-One, Courtaboeuf, France). After 24 hours, the medium was eliminated and replaced by 40 μl of an incubation medium that contained the agonist and/or antagonist in an appropriate concentration.
Target sequence in this assay (P25103 whole entry, species assumed): as the sequence (P25103 whole entry) above

The mark [5] stands for this setting: Homo sapiens, MRC5, MRC-5, 48 hours exposure.

Entries after “also recorded” stand apart in the source; their conditions may differ.

As for `C[C@@H](O[C@H]1OCCN(Cc2n[nH]c(=O)[nH]2)[C@H]1c1ccc(F)cc1)c1cc(C(F)(F)F)cc(C(F)(F)F)c1` [Aprepitant, reference compound], the values for the half-maximal inhibitory concentration (IC50) in assay [1] (setting [5]) and in assay [2] (Homo sapiens) were 22.1 ± 6.92 µM and 15.7 ± 3.46 µM, respectively.
The matching figures for `COc1ccccc1CN[C@H]1C2CCN(CC2)[C@H]1C(c1ccccc1)c1ccccc1` [CP-96345, reference compound]: 57.9 ± 8.07 µM and 46.8 ± 8.89 µM.
Regarding `C[C@@H](O[C@H]1O[C@@H]2CO[C@@H](c3ccccc3)O[C@@H]2[C@H](O)[C@H]1OCc1ccc(F)cc1)c1cc(C(F)(F)F)cc(C(F)(F)F)c1` [Compound 2, (R)-{1-[3,5-bis-(trifluoromethyl)phenyl]ethyl} 2-O-p-fluorobenzyl-(R)-[4,5-O-benzylidene]-α-D-galactopyranoside], the results for the IC50 in assay [1] (setting [5]) and in assay [2] (Homo sapiens) were 120 ± 3.45 µM and 19.3 ± 7.93 µM, respectively. Moreover, in assay [3], the “% Inhibition of the control specific affinity” value is recorded as no less than 100%. Besides, the “NK1 receptor antagonist activity (in words)” value in assay [4] (IP-One assay, inhibition of SP activity) is listed as “excellent inhibitors of SP activity; also recorded: greatest antagonist activity”. Also, the “anticancer activity against the cancer line (in words)” value in assay [2] is given as “most active; also recorded: matches those of cisplatin”.
As for `C[C@@H](O[C@H]1OC[C@@H]2OC(C)(C)O[C@@H]2[C@H]1OCc1ccc(F)cc1)c1cc(C(F)(F)F)cc(C(F)(F)F)c1` [Compound 8], the “% Inhibition of the control specific affinity” value in assay [3] is given as no less than 100%.
`CC(=O)N[C@@H](Cc1c[nH]c2ccccc12)C(=O)OCc1cc(C(F)(F)F)cc(C(F)(F)F)c1` [L-732,138, reference compound] yielded a Kinact in assay [4] (inhibition of substance P (SP), dose-response curves, IP-One assay) of 8.37E−08±2.63 M. The compound further gave an SP inhibition in assay [4] (ligand concentration of 10^−6M) of 69%.
Turning to “(R)-{1-[3,5-bis-(trifluoromethyl)phenyl]ethyl} 2-O-p-fluorobenzyl-(R)-[4,5-O-benzylidene]-β-D-D-galactopyranoside [Compound 1]”, the half-maximal inhibitory concentration (IC50) – broadly, the concentration needed to halve the response being measured – in assay [1] (MRC-5, 48 hours exposure) worked out at 141 ± 1.82 µM. Moreover, in assay [2], inhibition was half-maximal at 28 ± 6.85 µM (IC50) and the “anticancer activity against the cancer line (in words)” value was “most active”.

Source of the values: US20190092802A1, “ANTAGONISTS OF NK1 RECEPTORS DERIVED FROM CARBOHYDRATES, PRODUCTION METHOD AND MEDICAL USE” (CONSEJO SUPERIOR DE INVESTIGACIONES CIENTIFICAS (CSIC), priority 2015, published 2019).
